According to ChEMBL document CHEMBL1201862, “PubChem BioAssay data set” (2004):
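Compound exposure: 48 hours, 5 concentrations, 96-well plates. Abbreviation: GI50, concentration required for 50% inhibition of growth.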 Calls of active or inactive are those of the source. Rule as the data show it: active = GI50 up to about 1.1 µM and inactive = higher.

How the values were obtained:
Test in all cases: NCI anticancer screen, dose series, 48 h
OVCAR-8 = test system: OVCAR-8
OVCAR-4 = test system: OVCAR-4
HCC 2998 = test system: HCC 2998
LOX IMVI = test system: LOX IMVI
RPMI-8226 = test system: RPMI-8226
UACC-257 = test system: UACC-257
SK-OV-3 = test system: SK-OV-3
LXFL 529 = test system: LXFL 529
SN12C = test system: SN12C
M19-MEL = test system: M19-MEL
M14 = test system: M14
786-0 = test system: 786-0
NCI-H522 = test system: NCI-H522
OVCAR-3 = test system: OVCAR-3
SR = test system: SR
RXF 393 = test system: RXF 393
SF-295 = test system: SF-295
NCI-H460 = test system: NCI-H460
NCI-H226 = test system: NCI-H226
U-251 = test system: U-251
CAKI-1 = test system: CAKI-1
CCRF-CEM = test system: CCRF-CEM
SNB-78 = test system: SNB-78
MOLT-4 = test system: MOLT-4
SW-620 = test system: SW-620
SK-MEL-28 = test system: SK-MEL-28
COLO 205 = test system: COLO 205
SNB-75 = test system: SNB-75
IGROV-1 = test system: IGROV-1
DLD-1 = test system: DLD-1
SF-268 = test system: SF-268
SF-539 = test system: SF-539
ACHN = test system: ACHN
HOP-62 = test system: HOP-62
HCT-116 = test system: HCT-116
KM-20L2 = test system: KM-20L2
TK-10 = test system: TK-10
UO-31 = test system: UO-31
HT-29 = test system: HT-29
NCI-H23 = test system: NCI-H23
K562 = test system: K562
HCT-15 = test system: HCT-15
UACC-62 = test system: UACC-62
HL-60 = test system: HL-60
Malme-3M = test system: Malme-3M
SK-MEL-5 = test system: SK-MEL-5
SNB-19 = test system: SNB-19
OVCAR-5 = test system: OVCAR-5
KM12 = test system: KM12
A549 = test system: A549
HOP-92 = test system: HOP-92
EKVX = test system: EKVX
A498 = test system: A498
XF498 = test system: XF498
SK-MEL-2 = test system: SK-MEL-2
DMS-273 = test system: DMS-273

Question: `CC(=O)OC[C@]1(C)CCCC2(C)C1CCC1C=C(C)[C@H]3CCC12C3` (some centres undefined) was tested. Which GI50 (OVCAR-8) did it give?
Answer: > 100 µM (inactive)

Question: What about the GI50 (OVCAR-4) of the same molecule?
Answer: > 100 µM (inactive)

Question: And the GI50 (HCC 2998)?
Answer: > 100 µM (inactive)

Question: What about the GI50 (LOX IMVI) of the same molecule?
Answer: 47.5 µM (inactive)

Question: What about the GI50 (RPMI-8226) of the same molecule?
Answer: 62.7 µM (inactive)

Question: What about the GI50 (UACC-257) of the same molecule?
Answer: 61.7 µM (inactive)

Question: And the GI50 (SK-OV-3)?
Answer: 44.1 µM (inactive)

Question: And the GI50 (LXFL 529)?
Answer: > 100 µM (inactive)

Question: And the GI50 (SN12C)?
Answer: 40.3 µM (inactive)

Question: What about the GI50 (M19-MEL) of the same molecule?
Answer: 63.4 µM (inactive)

Question: What about the GI50 (M14) of the same molecule?
Answer: 35.2 µM (inactive)

Question: What about the GI50 (786-0) of the same molecule?
Answer: 66.2 µM (inactive)

Question: What about the GI50 (NCI-H522) of the same molecule?
Answer: 10.6 µM (inactive)

Question: And the GI50 (OVCAR-3)?
Answer: 61.4 µM (inactive)

Question: What about the GI50 (SR) of the same molecule?
Answer: > 100 µM (inactive)

Question: What about the GI50 (RXF 393) of the same molecule?
Answer: 44.4 µM (inactive)

Question: And the GI50 (SF-295)?
Answer: 35 µM (inactive)

Question: What about the GI50 (NCI-H460) of the same molecule?
Answer: 33.7 µM (inactive)

Question: And the GI50 (NCI-H226)?
Answer: > 100 µM (inactive)

Question: What about the GI50 (U-251) of the same molecule?
Answer: 39.7 µM (inactive)

Question: What about the GI50 (CAKI-1) of the same molecule?
Answer: > 100 µM (inactive)

Question: What about the GI50 (CCRF-CEM) of the same molecule?
Answer: > 100 µM (inactive)

Question: And the GI50 (SNB-78)?
Answer: 45.9 µM (inactive)

Question: What about the GI50 (MOLT-4) of the same molecule?
Answer: > 100 µM (inactive)

Question: And the GI50 (SW-620)?
Answer: 31.6 µM (inactive)

Question: What about the GI50 (SK-MEL-28) of the same molecule?
Answer: 60.5 µM (inactive)

Question: And the GI50 (COLO 205)?
Answer: 38.5 µM (inactive)

Question: And the GI50 (SNB-75)?
Answer: 31.8 µM (inactive)

Question: And the GI50 (IGROV-1)?
Answer: > 100 µM (inactive)

Question: And the GI50 (DLD-1)?
Answer: 99.3 µM (inactive)

Question: What about the GI50 (SF-268) of the same molecule?
Answer: 37.8 µM (inactive)

Question: And the GI50 (SF-539)?
Answer: 25.5 µM (inactive)

Question: And the GI50 (ACHN)?
Answer: > 100 µM (inactive)

Question: What about the GI50 (HOP-62) of the same molecule?
Answer: 50.9 µM (inactive)

Question: What about the GI50 (HCT-116) of the same molecule?
Answer: 47.4 µM (inactive)

Question: And the GI50 (KM-20L2)?
Answer: 42.9 µM (inactive)

Question: What about the GI50 (TK-10) of the same molecule?
Answer: > 100 µM (inactive)

Question: And the GI50 (UO-31)?
Answer: > 100 µM (inactive)

Question: What about the GI50 (HT-29) of the same molecule?
Answer: 43.3 µM (inactive)

Question: And the GI50 (NCI-H23)?
Answer: 94.4 µM (inactive)

Question: What about the GI50 (K562) of the same molecule?
Answer: > 100 µM (inactive)

Question: And the GI50 (HCT-15)?
Answer: 48.3 µM

Question: What about the GI50 (UACC-62) of the same molecule?
Answer: 56.9 µM (inactive)

Question: What about the GI50 (HL-60) of the same molecule?
Answer: > 100 µM (inactive)

Question: And the GI50 (Malme-3M)?
Answer: > 100 µM (inactive)

Question: And the GI50 (SK-MEL-5)?
Answer: > 100 µM (inactive)

Question: What about the GI50 (SNB-19) of the same molecule?
Answer: > 100 µM (inactive)

Question: What about the GI50 (OVCAR-5) of the same molecule?
Answer: > 100 µM (inactive)

Question: And the GI50 (KM12)?
Answer: 52.6 µM (inactive)

Question: What about the GI50 (A549) of the same molecule?
Answer: 65.2 µM (inactive)

Question: What does the source list for `O=C1c2cccc(O)c2C(=O)c2cccc(O)c21` [ANTHRARUFIN]?
Answer: GI50 (OVCAR-8): > 100 µM (inactive); GI50 (OVCAR-4): > 100 µM (inactive); GI50 (HCC 2998): > 100 µM (inactive); GI50 (LOX IMVI): > 100 µM (inactive); GI50 (RPMI-8226): > 100 µM (inactive); GI50 (UACC-257): > 100 µM (inactive); GI50 (LXFL 529): > 100 µM (inactive); GI50 (SN12C): > 100 µM (inactive); GI50 (M19-MEL): > 100 µM (inactive); GI50 (M14): > 100 µM (inactive); GI50 (786-0): > 100 µM (inactive); GI50 (NCI-H522): > 100 µM (inactive); GI50 (OVCAR-3): > 100 µM (inactive); GI50 (RXF 393): > 100 µM (inactive); GI50 (SF-295): > 100 µM (inactive); GI50 (NCI-H460): > 100 µM (inactive); GI50 (NCI-H226): > 100 µM (inactive); GI50 (U-251): > 100 µM (inactive); GI50 (HOP-92): > 100 µM (inactive); GI50 (CAKI-1): > 100 µM (inactive); GI50 (CCRF-CEM): > 100 µM (inactive); GI50 (SNB-78): > 100 µM (inactive); GI50 (MOLT-4): > 100 µM (inactive); GI50 (SW-620): > 100 µM (inactive); GI50 (EKVX): > 100 µM (inactive); GI50 (COLO 205): > 100 µM (inactive); GI50 (A498): > 100 µM (inactive); GI50 (SNB-75): > 100 µM (inactive); GI50 (IGROV-1): > 100 µM (inactive); GI50 (DLD-1): > 100 µM (inactive); GI50 (SF-268): > 100 µM (inactive); GI50 (SF-539): > 100 µM (inactive); GI50 (ACHN): > 100 µM (inactive); GI50 (HOP-62): > 100 µM (inactive); GI50 (HCT-116): > 100 µM (inactive); GI50 (TK-10): > 100 µM (inactive); GI50 (UO-31): > 100 µM (inactive); GI50 (HT-29): > 100 µM (inactive); GI50 (NCI-H23): > 100 µM (inactive); GI50 (K562): > 100 µM (inactive); GI50 (HCT-15): > 100 µM; GI50 (UACC-62): > 100 µM (inactive); GI50 (SNB-19): > 100 µM (inactive); GI50 (XF498): > 100 µM (inactive); GI50 (OVCAR-5): > 100 µM (inactive); GI50 (SK-MEL-2): > 100 µM (inactive); GI50 (KM12): > 100 µM (inactive); GI50 (DMS-273): > 100 µM (inactive); GI50 (A549): > 100 µM (inactive)
